# Results taken from publication PMC8286840, “Identifying SARS-CoV-2 antiviral compounds by screening for small molecule inhibitors of Nsp3 papain-like protease” (Biochemical Journal, 2021).
# Where a name gives a salt, the structure may show the parent alone. Read-outs that look alike come from different tables or passages of the source.
# Tests used:
# [1] = biological target: T1, SARS-CoV-2 PLpro (nsp3 1564–1878) (Severe acute respiratory syndrome coronavirus 2, UniProt P0DTD1); assay: biochemical; set-up: FRET-quenched peptide (Pro3) cleavage by PLpro, 10 min pre-incubation, slope over 20 min, normalised to no-compound control; details: read-out: % of control remaining
# [2] = biological target: T1, SARS-CoV-2 PLpro (nsp3 1564–1878); assay: biochemical; set-up: FRET-quenched peptide (Pro3) cleavage by PLpro, 10 min pre-incubation, slope over 20 min, normalised to no-compound control; details: read-out: % of control remaining; remark: listed apart in the source
structure (smiles),measurement,setting,value
Fc1ccc([C@@H]2CCNC[C@H]2COc2ccc3c(c2)OCO3)cc1 [Paroxetine],remaining activity at 1.25 µM,"[1]; Well no.=2093, low concentration screen",103%
same,remaining activity at 3.75 µM,"[2]; Well no.=2093, high concentration screen",101%
COc1ccc2c(c1)c(CC(=O)O)c(C)n2Cc1ccc(Cl)cc1 [1-(4-Chlorobenzyl)-5-methoxy-2-methylindole-3-acetic acid],remaining activity at 1.25 µM,"[1]; Well no.=379, low concentration screen",99.8%
same,remaining activity at 3.75 µM,"[2]; Well no.=379, high concentration screen",99.4%
CCOc1ccc(Cc2cc([C@@H]3O[C@H](CO)[C@@H](O)[C@H](O)[C@H]3O)ccc2Cl)cc1 [Dapagliflozin],remaining activity at 1.25 µM,"[1]; Well no.=5291, low concentration screen",93.4%
same,remaining activity at 3.75 µM,"[2]; Well no.=5291, high concentration screen",95.8%
CCn1cc(C(=O)O)c(=O)c2cc(F)c(N3CCNC(C)C3)c(F)c21 (stereo not drawn) [Lomefloxacin],remaining activity at 1.25 µM,"[1]; Well no.=2272, low concentration screen",95.3%
same,remaining activity at 3.75 µM,"[2]; Well no.=2272, high concentration screen",96.1%
COc1cc2c(c(OC)c1OC)-c1ccc(OC)c(=O)cc1[C@@H](NC=O)CC2 [N-Formyl-Deacetylcolchicine],remaining activity at 1.25 µM,[1],102%
same,remaining activity at 3.75 µM,[2],103%
CN(C)C(=O)Oc1ccc[n+](C)c1 [Pyridostigmine bromide],remaining activity at 1.25 µM,"[1]; Well no.=1499, low concentration screen",89.1%
same,remaining activity at 3.75 µM,"[2]; Well no.=1499, high concentration screen",91.4%
CC(=O)NCCCCCN [N-(5-Aminopentyl)acetamide],remaining activity at 1.25 µM,"[1]; Well no.=6155, low concentration screen",98.4%
same,remaining activity at 3.75 µM,"[2]; Well no.=6155, high concentration screen",89.4%
O=S(=O)(O)c1ccc(N=Nc2c(O)ccc3cc(S(=O)(=O)O)ccc23)cc1 [Sunset Yellow FCF],remaining activity at 1.25 µM,"[1]; Well no.=8500, low concentration screen",95.1%
same,remaining activity at 3.75 µM,"[2]; Well no.=8500, high concentration screen",92.1%
CCn1ccnc1CC1COc2ccccc2O1 (stereo not drawn) [Imiloxan hydrochloride],remaining activity at 1.25 µM,"[1]; Well no.=1063, low concentration screen",97.9%
same,remaining activity at 3.75 µM,"[2]; Well no.=1063, high concentration screen",97%
COc1ccc(C[C@H](N)C(=O)N[C@H]2[C@@H](O)[C@H](n3cnc4c(N(C)C)ncnc43)O[C@@H]2CO)cc1 [Puromycin],remaining activity at 1.25 µM,"[1]; Well no.=1674, low concentration screen",98.5%
same,remaining activity at 1.25 µM,"[1]; Well no.=3350, low concentration screen",93.8%
same,remaining activity at 3.75 µM,"[2]; Well no.=1674, high concentration screen",97.6%
same,remaining activity at 3.75 µM,"[2]; Well no.=3350, high concentration screen",90.4%
CCOC(=O)OC(C)OC1=C(C(=O)Nc2ccccn2)N(C)S(=O)(=O)c2ccccc21 (stereo not drawn) [Ampiroxicam],remaining activity at 1.25 µM,"[1]; Well no.=2125, low concentration screen",101%
same,remaining activity at 3.75 µM,"[2]; Well no.=2125, high concentration screen",103%
C[C@@H]1O[C@@H](O[C@H]2[C@H](Oc3cc(O)c4c(c3)O[C@H](c3ccc(O)cc3)CC4=O)O[C@H](CO)[C@@H](O)[C@@H]2O)[C@H](O)[C@H](O)[C@H]1O [Naringin],remaining activity at 1.25 µM,"[1]; Well no.=3665, low concentration screen",98.4%
same,remaining activity at 1.25 µM,"[1]; Well no.=8098, low concentration screen",97.4%
same,remaining activity at 3.75 µM,"[2]; Well no.=3665, high concentration screen",99.9%
same,remaining activity at 3.75 µM,"[2]; Well no.=8098, high concentration screen",97.5%
CN(C)CCCOc1nn(Cc2ccccc2)c2ccccc12 [Benzydamine],remaining activity at 1.25 µM,"[1]; Well no.=2302, low concentration screen",95.4%
same,remaining activity at 3.75 µM,"[2]; Well no.=2302, high concentration screen",96.1%
C=CCN1CC[C@]23c4c5ccc(O)c4O[C@H]2C(=O)CC[C@@]3(O)[C@H]1C5 [Naloxone hydrochloride],remaining activity at 1.25 µM,"[1]; Well no.=907, low concentration screen",103%
same,remaining activity at 3.75 µM,"[2]; Well no.=907, high concentration screen",105%
C[C@@]1(F)[C@H](O)[C@@H](CO)O[C@H]1n1ccc(=O)[nH]c1=O [PSI-6206],remaining activity at 1.25 µM,"[1]; Well no.=7710, low concentration screen",92.6%
same,remaining activity at 3.75 µM,"[2]; Well no.=7710, high concentration screen",87.5%
OC[C@@H](O)CN1CCN(c2ccccc2)CC1 [Levodropropizine],remaining activity at 1.25 µM,"[1]; Well no.=6189, low concentration screen",97.3%
same,remaining activity at 3.75 µM,"[2]; Well no.=6189, high concentration screen",82.2%
Oc1ccc(/C=C/c2cc(O)cc(O)c2)cc1 [Resveratrol],remaining activity at 1.25 µM,"[1]; Well no.=1492, low concentration screen",94.9%
same,remaining activity at 1.25 µM,"[1]; Well no.=3130, low concentration screen",101%
same,remaining activity at 1.25 µM,"[1]; Well no.=3847, low concentration screen",103%
same,remaining activity at 3.75 µM,"[2]; Well no.=1492, high concentration screen",95.7%
same,remaining activity at 3.75 µM,"[2]; Well no.=3130, high concentration screen",102%
same,remaining activity at 3.75 µM,"[2]; Well no.=3847, high concentration screen",101%
COc1cc2cc(c1Cl)N(C)C(=O)C[C@H](OC(=O)[C@H](C)N(C)C(=O)CCC(C)(C)SSCCCC(=O)ON1C(=O)CCC1=O)[C@]1(C)O[C@H]1[C@H](C)[C@@H]1C[C@@](O)(NC(=O)O1)[C@H](OC)/C=C\C=C(\C)C2 [SPDB-DM4],remaining activity at 1.25 µM,"[1]; Well no.=7700, low concentration screen",106%
same,remaining activity at 3.75 µM,"[2]; Well no.=7700, high concentration screen",106%
Cn1c(=O)c(-c2c(Cl)cccc2Cl)cc2cnc(Nc3ccc(N4CCOCC4)cc3)nc21 [PD173952],remaining activity at 1.25 µM,"[1]; Well no.=5415, low concentration screen",103%
same,remaining activity at 3.75 µM,"[2]; Well no.=5415, high concentration screen",108%
O=C(O)c1cccnc1C(=O)O [Quinolinic acid],remaining activity at 1.25 µM,"[1]; Well no.=1267, low concentration screen",105%
same,remaining activity at 1.25 µM,"[1]; Well no.=7265, low concentration screen",96.1%
same,remaining activity at 3.75 µM,"[2]; Well no.=1267, high concentration screen",109%
same,remaining activity at 3.75 µM,"[2]; Well no.=7265, high concentration screen",94.7%
Cc1[nH]c2ccc(Cl)cc2c1C1=CCNCC1 [EMD386088],remaining activity at 1.25 µM,"[1]; Well no.=5430, low concentration screen",95.7%
same,remaining activity at 3.75 µM,"[2]; Well no.=5430, high concentration screen",97.4%
CCCC(CCC)C(N)=O [Valpromide],remaining activity at 1.25 µM,"[1]; Well no.=5383, low concentration screen",103%
same,remaining activity at 3.75 µM,"[2]; Well no.=5383, high concentration screen",109%
Cc1ccc(F)cc1C(=O)Nc1ccc(C(=O)N2Cc3cccn3Cc3ccccc32)c(Cl)c1 [Lixivaptan],remaining activity at 1.25 µM,"[1]; Well no.=6957, low concentration screen",91.5%
same,remaining activity at 3.75 µM,"[2]; Well no.=6957, high concentration screen",88.9%
O=C1CC2(CCCC2)CC(=O)N1CCCCN1CCN(c2ncccn2)CC1 [Buspirone (hydrochloride)],remaining activity at 1.25 µM,"[1]; Well no.=8249, low concentration screen",101%
same,remaining activity at 3.75 µM,"[2]; Well no.=8249, high concentration screen",99.1%
CCC(=O)O[C@@H](O[P@](=O)(CCCCc1ccccc1)CC(=O)N1C[C@H](C2CCCCC2)C[C@H]1C(=O)O)C(C)C [Fosinopril (sodium)],remaining activity at 1.25 µM,"[1]; Well no.=8750, low concentration screen",93.5%
same,remaining activity at 3.75 µM,"[2]; Well no.=8750, high concentration screen",94.7%
COC(=O)c1ccc(O)c2nc3c(C=O)c(O)cc(O)c3nc12 [Lomofungin],remaining activity at 1.25 µM,"[1]; Well no.=1551, low concentration screen",102%
same,remaining activity at 3.75 µM,"[2]; Well no.=1551, high concentration screen",102%
N=C(N)NCCC[C@@H](NC(=O)[C@@H]1CCCN1C(=O)[C@@H]1CSSCCC(=O)N[C@@H](Cc2ccc(O)cc2)C(=O)N[C@@H](Cc2ccccc2)C(=O)N[C@@H](CCC(N)=O)C(=O)N[C@@H](CC(N)=O)C(=O)N1)C(=O)NCC(N)=O [Desmopressin (Acetate)],remaining activity at 1.25 µM,"[1]; Well no.=8153, low concentration screen",103%
same,remaining activity at 3.75 µM,"[2]; Well no.=8153, high concentration screen",96.9%
O=C(O)C(=O)Cc1ccccc1 [2-Oxo-3-phenylpropanoic acid],remaining activity at 1.25 µM,"[1]; Well no.=6877, low concentration screen",109%
same,remaining activity at 3.75 µM,"[2]; Well no.=6877, high concentration screen",103%
CCCCC[C@H](O)CC(=O)CCc1ccc(O)c(OC)c1 [[6]-Gingerol],remaining activity at 1.25 µM,"[1]; Well no.=6162, low concentration screen",96.6%
same,remaining activity at 3.75 µM,"[2]; Well no.=6162, high concentration screen",99.6%
N=C(N)NC(=O)c1nc(Cl)c(N)nc1N [Amiloride hydrochloride],remaining activity at 1.25 µM,"[1]; Well no.=148, low concentration screen",96.9%
same,remaining activity at 3.75 µM,"[2]; Well no.=148, high concentration screen",94.6%
CC[C@@H]1/C=C(\C)C[C@H](C)C[C@H](OC)[C@H]2O[C@@](O)(C(=O)C(=O)N3CCCC[C@H]3C(=O)O[C@H](/C(C)=C/[C@@H]3CC[C@H](Cl)[C@H](OC)C3)[C@H](C)[C@@H](O)CC1=O)[C@H](C)C[C@@H]2OC [Pimecrolimus],remaining activity at 1.25 µM,"[1]; Well no.=8178, low concentration screen",93.5%
same,remaining activity at 3.75 µM,"[2]; Well no.=8178, high concentration screen",91.3%
COc1nc(C)nc(Cl)c1NC1=NCCN1 [Moxonidine],remaining activity at 1.25 µM,"[1]; Well no.=4724, low concentration screen",98.7%
same,remaining activity at 1.25 µM,"[1]; Well no.=7423, low concentration screen",106%
same,remaining activity at 3.75 µM,"[2]; Well no.=4724, high concentration screen",92.3%
